Measurements reported in ChEMBL document CHEMBL1201861, “Genomics of Drug Sensitity in Cancer screening data, Wellcome Trust Sanger Institute”.

Assays:
Assay in all cases: cells
MC116 = format: functional, cell-based; settings: Homo sapiens;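 note: growth inhibition of MC116 cells, read out with a cell viability assay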
Description: SANGER: Inhibition of human MC116 cell growth in a cell viability assay.

SH-4 = format: functional, cell-based, Homo sapiens; settings: Homo sapiens, SH-4;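 note: growth inhibition of SH-4 cells, read out with a cell viability assay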
Description: SANGER: Inhibition of human SH-4 cell growth in a cell viability assay.

SK-MEL-2 = format: functional, cell-based, Homo sapiens; settings: Homo sapiens, SK-MEL-2;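 note: growth inhibition of human SK-MEL-2 cells measured with a cell viability assay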
Description: SANGER: Inhibition of human SK-MEL-2 cell growth in a cell viability assay.

DEL = format: functional, cell-based; settings: Homo sapiens;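 note: growth inhibition of the human DEL cell line, read out with a cell viability assay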
Description: SANGER: Inhibition of human DEL cell growth in a cell viability assay.

LC-2-ad = format: functional, cell-based, Homo sapiens; settings: Homo sapiens, LC-2-ad;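 note: growth inhibition of human LC-2-ad cells, read out with a cell viability assay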
Description: SANGER: Inhibition of human LC-2-ad cell growth in a cell viability assay.

NTERA-2-cl-D1 = format: functional, cell-based, Homo sapiens; settings: Homo sapiens, NTERA-2-cl-D1;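 note: inhibition of cell growth, measured with a cell viability assay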
Description: SANGER: Inhibition of human NTERA-S-cl-D1 cell growth in a cell viability assay.

MPP-89 = format: functional, cell-based, Homo sapiens; settings: Homo sapiens, MPP-89;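 note: growth inhibition of human MPP-89 cells, read out with a cell viability assay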
Description: SANGER: Inhibition of human MPP-89 cell growth in a cell viability assay.

HuP-T3 = format: functional, cell-based, Homo sapiens; settings: Homo sapiens, HuP-T3;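 note: HuP-T3 cell growth inhibition, read out with a cell viability assay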
Description: SANGER: Inhibition of human HuP-T3 cell growth in a cell viability assay.

TE-11 = format: functional, cell-based, Homo sapiens; settings: Homo sapiens, TE-11;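 note: growth inhibition of human TE-11 cells, read out by a cell viability assay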
Description: SANGER: Inhibition of human TE-11 cell growth in a cell viability assay.

UO-31 = format: functional, cell-based; settings: Homo sapiens;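 note: cell viability assay measuring inhibition of cell growth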
Description: SANGER: Inhibition of human U031 cell growth in a cell viability assay.

HT-3 = format: functional, cell-based, Homo sapiens; settings: Homo sapiens, HT-3;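 note: growth inhibition measured with a cell viability readout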
Description: SANGER: Inhibition of human HT-3 cell growth in a cell viability assay.

GMS-10 = format: functional, cell-based, Homo sapiens; settings: Homo sapiens, GMS-10;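 note: growth inhibition of GMS-10 cells, read out as cell viability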
Description: SANGER: Inhibition of human GMS-10 cell growth in a cell viability assay.

HT-29 = format: functional, cell-based, Homo sapiens; settings: Homo sapiens, HT-29;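 note: growth inhibition of human HT-29 cells, read out by a cell viability assay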
Description: SANGER: Inhibition of human HT-29 cell growth in a cell viability assay.

COR-L23 = format: functional, cell-based, Homo sapiens; settings: Homo sapiens, COR-L23;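 note: cell viability assay measuring how strongly compounds suppress growth of COR-L23 cells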
Description: SANGER: Inhibition of human COR-L23 cell growth in a cell viability assay.

MZ2-MEL = format: functional, cell-based, Homo sapiens; settings: Homo sapiens, MZ2-MEL;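 note: growth inhibition of MZ2-MEL cells read out with a cell viability assay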
Description: SANGER: Inhibition of human MZ2-MEL cell growth in a cell viability assay.

TE-12 = format: functional, cell-based; settings: Homo sapiens;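 note: growth inhibition of TE-12 cells, read out by a cell viability assay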
Description: SANGER: Inhibition of human TE-12 cell growth in a cell viability assay.

SW1710 = format: functional, cell-based, Homo sapiens; settings: Homo sapiens, SW1710;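 note: growth inhibition of SW1710 cells, determined with a cell viability assay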
Description: SANGER: Inhibition of human SW1710 cell growth in a cell viability assay.

NCI-H23 = format: functional, cell-based, Homo sapiens; settings: Homo sapiens, NCI-H23;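 note: cell viability assay measuring growth inhibition of NCI-H23 cells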
Description: SANGER: Inhibition of human NCI-H23 cell growth in a cell viability assay.

PANC-08-13 = format: functional, cell-based, Homo sapiens; settings: Homo sapiens, PANC-08-13;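 note: cell growth inhibition, measured with a cell viability assay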
Description: SANGER: Inhibition of human PANC-08-13 cell growth in a cell viability assay.

BHT-101 = format: functional, cell-based, Homo sapiens; settings: Homo sapiens, BHT-101
Description: SANGER: Inhibition of human BHT-101 cell growth in a cell viability assay.

JVM-2 = format: functional, cell-based; settings: Homo sapiens;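 note: growth inhibition of JVM-2 cells determined by a cell viability assay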
Description: SANGER: Inhibition of human JVM-2 cell growth in a cell viability assay.

OAW-42 = format: functional, cell-based, Homo sapiens; settings: Homo sapiens, OAW-42;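 note: growth inhibition of OAW-42 cells, read out with a cell viability assay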
Description: SANGER: Inhibition of human OAW-42 cell growth in a cell viability assay.

IST-SL1 = format: functional, cell-based, Homo sapiens; settings: Homo sapiens, IST-SL1;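 note: growth inhibition of human IST-SL1 cells, read out with a cell viability assay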
Description: SANGER: Inhibition of human IST-SL1 cell growth in a cell viability assay.

KOSC-2 = format: functional, cell-based, Homo sapiens; settings: Homo sapiens, KOSC-2;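 note: growth inhibition of KOSC-2 cells, read out by a cell viability assay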
Description: SANGER: Inhibition of human KOSC-2 cell growth in a cell viability assay.

LOX IMVI = format: functional, cell-based; settings: Homo sapiens
Description: SANGER: Inhibition of human LOXIMVI cell growth in a cell viability assay.

NCI-H1623 = format: functional, cell-based, Homo sapiens; settings: Homo sapiens, NCI-H1623;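 note: cell viability assay used as the read-out for growth inhibition of NCI-H1623 cells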
Description: SANGER: Inhibition of human NCI-H1623 cell growth in a cell viability assay.

LS-1034 = format: functional, cell-based, Homo sapiens; settings: Homo sapiens, LS-1034
Description: SANGER: Inhibition of human LS-1034 cell growth in a cell viability assay.

KYSE-510 = format: functional, cell-based, Homo sapiens; settings: Homo sapiens, KYSE-510;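 note: cell viability readout used to measure how strongly growth of the cell line is suppressed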
Description: SANGER: Inhibition of human KYSE-510 cell growth in a cell viability assay.

DBTRG-05MG = format: functional, cell-based, Homo sapiens; settings: Homo sapiens, DBTRG-05MG;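 note: cell viability assay measuring growth inhibition of human DBTRG-05MG cells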
Description: SANGER: Inhibition of human DBTRG-05MG cell growth in a cell viability assay.

KGN = format: functional, cell-based, Homo sapiens; settings: Homo sapiens, KGN;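 note: growth inhibition of KGN cells, read out with a cell viability assay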
Description: SANGER: Inhibition of human KGN cell growth in a cell viability assay.

IST-MEL1 = format: functional, cell-based, Homo sapiens; settings: Homo sapiens, IST-MEL1;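 note: growth inhibition of the cell line, read out with a cell viability assay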
Description: SANGER: Inhibition of human IST-MEL1 cell growth in a cell viability assay.

Capan-2 = format: functional, cell-based, Homo sapiens; settings: Homo sapiens, Capan-2;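 note: Capan-2 cell growth inhibition, read out with a viability assay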
Description: SANGER: Inhibition of human Capan-2 cell growth in a cell viability assay.

LCLC-103H cell line = format: functional, cell-based, Homo sapiens; settings: Homo sapiens, LCLC-103H
Description: SANGER: Inhibition of human LCLC-103H cell growth in a cell viability assay.

U-251 = format: functional, cell-based, Homo sapiens; settings: Homo sapiens, U-251;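 note: growth inhibition of human U-251 cells, read out through a cell viability assay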
Description: SANGER: Inhibition of human U251 cell growth in a cell viability assay.

LU-134-A = format: functional, cell-based; settings: Homo sapiens
Description: SANGER: Inhibition of human LU-134-A cell growth in a cell viability assay.

NCI-H650 = format: functional, cell-based, Homo sapiens; settings: Homo sapiens, NCI-H650;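 note: growth inhibition of NCI-H650 cells, read out by a viability assay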
Description: SANGER: Inhibition of human NCI-H650 cell growth in a cell viability assay.

MZ1-PC = format: functional, cell-based, Homo sapiens; settings: Homo sapiens, MZ1-PC;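 note: cell viability assay measuring growth inhibition of human MZ1-PC cells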
Description: SANGER: Inhibition of human MZ1-PC cell growth in a cell viability assay.

HT-144 = format: functional, cell-based, Homo sapiens; settings: Homo sapiens, HT-144
Description: SANGER: Inhibition of human HT-144 cell growth in a cell viability assay.

KARPAS-299 = format: functional, cell-based; settings: Homo sapiens
Description: SANGER: Inhibition of human KARPAS-299 cell growth in a cell viability assay.

NCI-H2228 = format: functional, cell-based, Homo sapiens; settings: Homo sapiens, NCI-H2228;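 note: growth inhibition of human NCI-H2228 cells, read out by a cell viability assay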
Description: SANGER: Inhibition of human NCI-H2228 cell growth in a cell viability assay.

FTC-133 = format: functional, cell-based, Homo sapiens; settings: Homo sapiens, FTC-133
SW837 = format: functional, cell-based, Homo sapiens; settings: Homo sapiens, SW837;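 note: growth inhibition of SW837 cells, determined with a cell viability assay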
Description: SANGER: Inhibition of human SW837 cell growth in a cell viability assay.

SK-N-AS = format: functional, cell-based, Homo sapiens; settings: Homo sapiens, SK-N-AS;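 note: growth inhibition of human SK-N-AS cells, measured with a cell viability assay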
Description: SANGER: Inhibition of human SK-N-AS cell growth in a cell viability assay.

OE33 = format: functional, cell-based, Homo sapiens; settings: Homo sapiens, OE33;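 note: growth inhibition of human OE33 cells, measured by a cell viability assay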
Description: SANGER: Inhibition of human OE33 cell growth in a cell viability assay.

IGROV-1 = format: functional, cell-based, Homo sapiens; settings: Homo sapiens, IGROV-1;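 note: reduction of IGROV-1 cell growth, read out with a viability assay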
Description: SANGER: Inhibition of human IGROV-1 cell growth in a cell viability assay.

SK-MEL-1 = format: functional, cell-based; settings: Homo sapiens;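 note: growth inhibition of human SK-MEL-1 cells, read out by a cell viability assay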
Description: SANGER: Inhibition of human SK-MEL-1 cell growth in a cell viability assay.

CAL-62 = format: functional, cell-based, Homo sapiens; settings: Homo sapiens, CAL-62;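 note: growth inhibition of CAL-62 cells, read out with a cell viability assay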
Description: SANGER: Inhibition of human CAL-62 cell growth in a cell viability assay.

KYSE-70 cell line = format: functional, cell-based, Homo sapiens; settings: Homo sapiens, KYSE-70;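 note: cell viability assay read-out, with IC50 expressing suppression of KYSE-70 cell growth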
Description: SANGER: Inhibition of human KYSE-70 cell growth in a cell viability assay.

MN-60 = format: functional, cell-based; settings: Homo sapiens;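 note: growth inhibition of the MN-60 cell line, determined with a cell viability assay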
Description: SANGER: Inhibition of human MN-60 cell growth in a cell viability assay.

**Q.** Which results are given for `COc1cc(F)c(F)c(Nc2ccc(I)cc2F)c1NS(=O)(=O)C1(CC(O)CO)CC1` (centres undefined)?
**A.** IC50 (MC116): > 5000 nM; IC50 (SH-4): 85.6 nM; IC50 (SK-MEL-2): 101 nM; IC50 (DEL): > 5000 nM; IC50 (LC-2-ad): > 5000 nM; IC50 (NTERA-2-cl-D1): > 5000 nM; IC50 (MPP-89): > 5000 nM; IC50 (HuP-T3): > 5000 nM; IC50 (TE-11): > 5000 nM; IC50 (UO-31): > 5000 nM; IC50 (HT-3): > 5000 nM; IC50 (GMS-10): 3800 nM; IC50 (HT-29): 182 nM; IC50 (COR-L23): 2780 nM; IC50 (MZ2-MEL): 319 nM; IC50 (TE-12): > 5000 nM; IC50 (SW1710): 2020 nM; IC50 (NCI-H23): > 5000 nM; IC50 (PANC-08-13): > 5000 nM; IC50 (BHT-101): 106 nM; IC50 (JVM-2): > 5000 nM; IC50 (OAW-42): > 5000 nM; IC50 (IST-SL1): > 5000 nM; IC50 (KOSC-2): 1680 nM; IC50 (LOX IMVI): 477 nM; IC50 (NCI-H1623): 1780 nM; IC50 (LS-1034): 1620 nM; IC50 (KYSE-510): > 5000 nM; IC50 (DBTRG-05MG): > 5000 nM; IC50 (KGN): 2800 nM; IC50 (IST-MEL1): 1890 nM; IC50 (Capan-2): > 5000 nM; IC50 (LCLC-103H cell line): > 5000 nM; IC50 (U-251): > 5000 nM; IC50 (LU-134-A): > 5000 nM; IC50 (NCI-H650): > 5000 nM; IC50 (MZ1-PC): 1340 nM; IC50 (HT-144): 49 nM; IC50 (KARPAS-299): > 5000 nM; IC50 (NCI-H2228): > 5000 nM; IC50 (FTC-133): 4550 nM; IC50 (SW837): > 5000 nM; IC50 (SK-N-AS): 43.3 nM; IC50 (OE33): > 5000 nM; IC50 (IGROV-1): 1780 nM; IC50 (SK-MEL-1): > 5000 nM; IC50 (CAL-62): 682 nM; IC50 (KYSE-70 cell line): > 5000 nM; IC50 (MN-60): > 5000 nM
